{"source": "patent US10301267B2", "about": "“Compounds” (AstraZeneca AB, priority 2006, dated 2019)", "data": [{"target": "FGFR1 active kinase (Homo sapiens, UniProt P11362)", "sequence (P11362 22-822)": "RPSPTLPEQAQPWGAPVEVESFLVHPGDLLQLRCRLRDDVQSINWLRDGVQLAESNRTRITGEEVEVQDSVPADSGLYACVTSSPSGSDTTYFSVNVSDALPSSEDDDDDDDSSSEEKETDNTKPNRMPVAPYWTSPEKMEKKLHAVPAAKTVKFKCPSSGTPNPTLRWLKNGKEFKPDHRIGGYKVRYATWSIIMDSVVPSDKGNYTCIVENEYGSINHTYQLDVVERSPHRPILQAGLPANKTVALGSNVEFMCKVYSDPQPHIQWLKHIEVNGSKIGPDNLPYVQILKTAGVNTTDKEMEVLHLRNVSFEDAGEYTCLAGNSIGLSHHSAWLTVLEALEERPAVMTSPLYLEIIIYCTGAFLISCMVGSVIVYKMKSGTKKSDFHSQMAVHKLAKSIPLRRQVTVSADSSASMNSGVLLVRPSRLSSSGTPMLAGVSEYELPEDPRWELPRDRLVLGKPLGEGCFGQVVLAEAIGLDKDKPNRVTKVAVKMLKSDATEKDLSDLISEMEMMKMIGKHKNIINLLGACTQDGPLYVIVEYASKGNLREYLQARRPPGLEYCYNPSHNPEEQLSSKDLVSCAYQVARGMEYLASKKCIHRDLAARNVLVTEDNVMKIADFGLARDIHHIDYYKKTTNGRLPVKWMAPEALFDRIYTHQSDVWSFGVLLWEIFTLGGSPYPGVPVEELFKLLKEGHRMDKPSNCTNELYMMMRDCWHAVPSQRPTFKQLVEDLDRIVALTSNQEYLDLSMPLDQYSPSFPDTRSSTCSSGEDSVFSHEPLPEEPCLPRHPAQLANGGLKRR", "test": "FGFR Kinase assay - Caliper Echo Dosing", "assay_type": "biochemical", "conditions": "FGFR1 7.2 nM, 408 uM ATP, acoustic dosing; geometric mean of n", "experimental": "FGFR Kinase Assay—Caliper Echo Dosing\nTo determine inhibition of FGFR activity, kinase assays were conducted using Caliper technology.\nKinase activity assays were performed in Greiner 384-well low volume plates, with a total reaction volume of 12 ul per well. Final concentration of FGFR1 active kinase in each reaction well was 7.2 nM. The substrate for each assay was a custom peptide with fluorescent tag (13 amino acids in length, […] with the fluorescene tag on the first K).\nCompounds were dispensed directly in to assay plates using a Labcyte Echo 550 acoustic droplet ejection unit. Each well received 120 nl of DMSO containing compound such that the final concentration of compound in the assay prior to the addition of the stop solution ranged between 30 uM and 30 pM. In addition to compounds each plate carried maximum and minimum control wells, the max wells contained 120 nl of DMSO and the min wells contained 120 nl of 10 mM staurosporine (LC Laboratories, MA 01801, USA Catalogue No. S-9300). The Enzyme (at 7.2 nM [final]) and Substrate (at 3.6 uM [final]) were added separately to the compound plates, in reaction buffer [comprising: 50 mM MOPS (Sigma, Catalogue No. M1254)—pH 6.5, 0.004% Triton (Sigma, Catalogue No. X-100), 2.4 mM DTT, 12 mM MgCl2, 408 uM ATP] resulting in a final DMSO concentration in the reaction mix of 1%.\nAssay plates were incubated at room temperature for 1.5 h, before the reaction was stopped with the addition of buffer [comprising: 100 mM HEPES—pH7.5, 0.033% Brij-35 (Sigma Catalogue No. B4184), 0.22% Caliper Coating Reagent #3 (Caliper Life Sciences Catalogue No. 760050), 88 mM EDTA, 5% DMSO]. Stopped assay plates were then read using the Caliper LabChip® LC3000 (which uses microfludics to measure a shift in mobility between fluorescent labelled peptide and the FGFR1 kinase—phosphorylated form of this peptide).\nIn the assay, compounds were tested at a range of concentrations. […] Percentage inhibition at 1 uM, as expressed herein, is a calculated value based on the curve fit that was generated experimentally. From the fitted curve plot, the effect of compound at a concentration of 1 uM was calculated as a percentage inhibition. The IC50 is the concentration of compound, which inhibits FGFR1 kinase activity by 50% in the context of this assay. This value is calculated using a standard curve fitting software package Origin™.", "units": {"IC50": "nM"}, "values": [{"smiles": "COc1cc(CCc2cc(NC(=O)c3cnc(N4CCN(C)C(=O)C4)nc3)[nH]n2)cc(OC)c1", "note": "[Example 150, N-[5-[2-(3,5-dimethoxyphenyl)ethyl]-2H-pyrazol-3-yl]-2-(4-methyl-3-oxopiperazin-1-yl)pyrimidine-5-carboxamide]", "IC50": 12}, {"smiles": "COc1cc(COc2cc(NC(=O)c3ccc(C4CCN(C)CC4)cc3)[nH]n2)cc(OC)c1", "note": "[Example 103, N-[5-[(3,5-dimethoxyphenyl)methoxy]-2H-pyrazol-3-yl]-4-(1-methylpiperidin-4-yl)benzamide]", "IC50": 0.94}, {"smiles": "COc1cc(CCc2cc(NC(=O)c3ccc(I)cc3)[nH]n2)cc(OC)c1", "note": "[Example 82, N-[5-[2-(3,5-Dimethoxyphenyl)ethyl]-2H-pyrazol-3-yl]-4-iodo-benzamide]", "IC50": 21}, {"smiles": "COc1cc(CCc2cc(NC(=O)c3cnc(N4C[C@@H](C)N(CC#N)[C@@H](C)C4)cn3)[nH]n2)cc(OC)c1", "note": "[Example 129, 5-[(3R,5S)-4-(cyanomethyl)-3,5-dimethylpiperazin-1-yl]-N-[5-[2-(3,5-dimethoxyphenyl)ethyl]-2H-pyrazol-3-yl]pyrazine-2-carboxamide]", "IC50": 3.5}, {"smiles": "C=CCN1CCCN(c2ncc(C(=O)Nc3cc(CCc4cc(OC)cc(OC)c4)n[nH]3)cn2)CC1", "note": "[Example 175, N-[5-[2-(3,5-dimethoxyphenyl)ethyl]-2H-pyrazol-3-yl]-2-(4-prop-2-enyl-1,4-diazepan-1-yl)pyrimidine-5-carboxamide]", "IC50": 7}, {"smiles": "COc1cc(COc2cc(NC(=O)c3ccc(N4C[C@@H](C)N(C)[C@@H](C)C4)cc3)[nH]n2)cc(OC)c1", "note": "[Example 110, N-[5-[(3,5-dimethoxyphenyl)methoxy]-2H-pyrazol-3-yl]-4-[(3R,5S)-3,4,5-trimethylpiperazin-1-yl]benzamide]", "IC50": 0.68}, {"smiles": "COc1cc(CCc2cc(NC(=O)c3ccc(N4CCCN(C)CC4)cc3)[nH]n2)cc(OC)c1", "note": "[Example 156, N-[5-[2-(3,5-dimethoxyphenyl)ethyl]-2H-pyrazol-3-yl]-4-(4-methyl-1,4-diazepan-1-yl)benzamide]", "IC50": 0.81}, {"smiles": "CCN1CCC(c2ccc(C(=O)Nc3cc(CCc4cc(OC)cc(OC)c4)n[nH]3)cc2)CC1", "note": "[Example 159, N-[5-[2-(3,5-dimethoxyphenyl)ethyl]-2H-pyrazol-3-yl]-4-(1-ethylpiperidin-4-yl)benzamide]", "IC50": 0.97}, {"smiles": "COc1cc(CCc2cc(NC(=O)c3ccc(N4CCCN(C(C)C)CC4)cc3)[nH]n2)cc(OC)c1", "note": "[Example 166, N-[5-[2-(3,5-dimethoxyphenyl)ethyl]-2H-pyrazol-3-yl]-4-(4-propan-2-yl-1,4-diazepan-1-yl)benzamide]", "IC50": 0.7}, {"smiles": "COc1cc(COc2cc(NC(=O)c3cnc(N4CCN5CCCC5C4)nc3)[nH]n2)cc(OC)c1", "note": "(stereo not shown) [Example 134, 2-(3,4,6,7,8,8a-hexahydro-1H-pyrrolo[2,1-c]pyrazin-2-yl)-N-[5-[(3,5-dimethoxyphenyl)methoxy]-2H-pyrazol-3-yl]pyrimidine-5-carboxamide]", "IC50": 2.4}, {"smiles": "COc1cc(CCc2cc(NC(=O)c3cnc(N4CCCN(C)CC4)nc3)[nH]n2)cc(OC)c1", "note": "[Example 176, N-[5-[2-(3,5-dimethoxyphenyl)ethyl]-2H-pyrazol-3-yl]-2-(4-methyl-1,4-diazepan-1-yl)pyrimidine-5-carboxamide]", "IC50": 5.8}, {"smiles": "CNC(=O)c1cccc(CCc2cc(NC(=O)c3ccc(N4CCN(C)CC4)cc3)[nH]n2)c1", "note": "[Example 178, N-[5-[2-[3-(methylcarbamoyl)phenyl]ethyl]-2H-pyrazol-3-yl]-4-(4-methylpiperazin-1-yl)benzamide]", "IC50": 1.1}, {"smiles": "COCC1CN(c2ncc(C(=O)Nc3cc(CCc4cc(OC)cc(OC)c4)n[nH]3)cn2)CCN1", "note": "(stereo not shown) [Example 160, N-[5-[2-(3,5-dimethoxyphenyl)ethyl]-2H-pyrazol-3-yl]-2-[3-(methoxymethyl)piperazin-1-yl]pyrimidine-5-carboxamide]", "IC50": 4.3}, {"smiles": "COc1cc(CCc2cc(NC(=O)c3cnc(N4CCN5CCCC5C4)cn3)[nH]n2)cc(OC)c1", "note": "(stereo not shown) [Example 114, 5-(3,4,6,7,8,8a-hexahydro-1H-pyrrolo[2,1-c]pyrazin-2-yl)-N-[5-[2-(3,5-dimethoxyphenyl)ethyl]-2H-pyrazol-3-yl]pyrazine-2-carboxamide]", "IC50": 1.6}, {"smiles": "CCN1CCCN(c2cnc(C(=O)Nc3cc(CCc4cc(OC)cc(OC)c4)n[nH]3)cn2)CC1", "note": "[Example 169, N-[5-[2-(3,5-dimethoxyphenyl)ethyl]-2H-pyrazol-3-yl]-5-(4-ethyl-1,4-diazepan-1-yl)pyrazine-2-carboxamide]", "IC50": 2.7}, {"smiles": "COc1cc(CCc2cc(NC(=O)c3ccc(N4CCN(C(C)CO)CC4)cc3)[nH]n2)cc(OC)c1", "note": "(stereo not shown) [Example 137, N-[5-[2-(3,5-dimethoxyphenyl)ethyl]-2H-pyrazol-3-yl]-4-[4-(1-hydroxypropan-2-yl)piperazin-1-yl]benzamide]", "IC50": 0.57}, {"smiles": "COc1cc(CCc2cc(NC(=O)c3ccc(N4CCN5CCCC5C4)s3)[nH]n2)cc(OC)c1", "note": "(stereo not shown) [Example 120, 5-(3,4,6,7,8,8a-hexahydro-1H-pyrrolo[2,1-c]pyrazin-2-yl)-N-[5-[2-(3,5-dimethoxyphenyl)ethyl]-2H-pyrazol-3-yl]thiophene-2-carboxamide]", "IC50": 0.98}, {"smiles": "COc1cc(CCc2cc(NC(=O)c3cnc(N4CCC(N(C)C)C4)cn3)[nH]n2)cc(OC)c1", "note": "(stereo not shown) [Example 157, N-[5-[2-(3,5-dimethoxyphenyl)ethyl]-2H-pyrazol-3-yl]-5-(3-dimethylaminopyrrolidin-1-yl)pyrazine-2-carboxamide]", "IC50": 2.4}, {"smiles": "COc1cc(CCc2cc(NC(=O)c3ccc(N4CCCN(C5CC5)CC4)cc3)[nH]n2)cc(OC)c1", "note": "[Example 165, 4-(4-cyclopropyl-1,4-diazepan-1-yl)-N-[5-[2-(3,5-dimethoxyphenyl)ethyl]-2H-pyrazol-3-yl]benzamide]", "IC50": 0.064}, {"smiles": "COc1cc(COc2cc(NC(=O)c3ccc(N4CCN(C5CC5)CC4)cc3)[nH]n2)cc(OC)c1", "note": "[Example 116, 4-(4-cyclopropylpiperazin-1-yl)-N-[5-[(3,5-dimethoxyphenyl)methoxy]-2H-pyrazol-3-yl]benzamide]", "IC50": 0.93}, {"smiles": "CCN(CC)C1CCN(c2cnc(C(=O)Nc3cc(CCc4cc(OC)cc(OC)c4)n[nH]3)cn2)C1", "note": "(stereo not shown) [Example 158, 5-(3-diethylaminopyrrolidin-1-yl)-N-[5-[2-(3,5-dimethoxyphenyl)ethyl]-2H-pyrazol-3-yl]pyrazine-2-carboxamide]", "IC50": 2.9}, {"smiles": "COc1cc(CCc2cc(NC(=O)c3ccc(N4C[C@@H](C)N(C)[C@@H](C)C4)cc3)[nH]n2)cc(OC)c1", "note": "[Example 155, N-[5-[2-(3,5-dimethoxyphenyl)ethyl]-2H-pyrazol-3-yl]-4-[(3R,5S)-3,4,5-trimethylpiperazin-1-yl]benzamide]", "IC50": 0.45}, {"smiles": "CCN1CCN(c2ccc(C(=O)Nc3cc(OCc4cc(OC)cc(OC)c4)n[nH]3)s2)CC1", "note": "[Example 141, N-[5-[(3,5-dimethoxyphenyl)methoxy]-2H-pyrazol-3-yl]-5-(4-ethylpiperazin-1-yl)thiophene-2-carboxamide]", "IC50": 0.86}, {"smiles": "COc1cc(CCc2cc(NC(=O)c3ccc(N4CCCN(C)CC4)s3)[nH]n2)cc(OC)c1", "note": "[Example 142, N-[5-[2-(3,5-dimethoxyphenyl)ethyl]-2H-pyrazol-3-yl]-5-(4-methyl-1,4-diazepan-1-yl)thiophene-2-carboxamide]", "IC50": 2.1}, {"smiles": "COc1cc(CCc2cc(NC(=O)c3cnc(N4CCN(C5CC5)CC4)cn3)[nH]n2)cc(OC)c1", "note": "[Example 113, 5-(4-Cyclopropylpiperazin-1-yl)-N-[5-[2-(3,5-dimethoxyphenyl)ethyl]-2H-pyrazol-3-yl]pyrazine-2-carboxamide]", "IC50": 2.3}, {"smiles": "COc1cc(CCc2cc(NC(=O)c3cnc(N4CCCN(C(C)C)CC4)nc3)[nH]n2)cc(OC)c1", "note": "[Example 173, N-[5-[2-(3,5-dimethoxyphenyl)ethyl]-2H-pyrazol-3-yl]-2-(4-propan-2-yl-1,4-diazepan-1-yl)pyrimidine-5-carboxamide]", "IC50": 18}, {"smiles": "COc1cc(CCc2cc(NC(=O)c3ccc(N4CCCNCC4)cc3)[nH]n2)cc(OC)c1", "note": "[Example 145, 4-(1,4-diazepan-1-yl)-N-[5-[2-(3,5-dimethoxyphenyl)ethyl]-2H-pyrazol-3-yl]benzamide]", "IC50": 0.7}, {"smiles": "COc1cc(CCc2cc(NC(=O)c3ccc(N4CCCN(C(C)C)CC4)s3)[nH]n2)cc(OC)c1", "note": "[Example 168, N-[5-[2-(3,5-dimethoxyphenyl)ethyl]-2H-pyrazol-3-yl]-5-(4-propan-2-yl-1,4-diazepan-1-yl)thiophene-2-carboxamide]", "IC50": 1.5}]}]}
